From the NIST ThermoML archive (doi:10.1021/je300280s)
Where “and” joins values, the source holds several entries; their conditions need not be identical. Equal values may be shown once.

Key:
[1] = xn = mol fraction of the nth substance listed; conditions: 101.3 kPa, Liquid, Vibrating tube method
[2] = excess molar enthalpy (molar enthalpy of mixing); xn = mol fraction of the nth substance listed; conditions: 101.3 kPa, Liquid, Flow calorimetry

CC(=O)C(C)=O [2,3-butanedione] + O
Conditions | excess molar enthalpy, [2] | mass density, [1]
288.15 K, x1 = 0.002059 | – | 1001.04 kg/m3
288.15 K, x1 = 0.002062 | – | 1001.04 kg/m3
288.15 K, x1 = 0.003086 | – | 1002 kg/m3
288.15 K, x1 = 0.003089 | – | 1002 kg/m3
288.15 K, x1 = 0.004111 | – | 1002.95 kg/m3
288.15 K, x1 = 0.004113 | – | 1002.96 kg/m3
288.15 K, x1 = 0.005132 | – | 1003.91 kg/m3
288.15 K, x1 = 0.005135 | – | 1003.91 kg/m3
288.15 K, x1 = 0.006153 | – | 1004.87 kg/m3
288.15 K, x1 = 0.006157 | – | 1004.87 kg/m3
288.18 K, x1 = 0.00103 | -0.00487 kcal/mol | –
288.18 K, x1 = 0.001032 | -0.00488 kcal/mol | –
288.18 K, x1 = 0.002059 | -0.00976 kcal/mol | –
288.18 K, x1 = 0.002062 | -0.00976 kcal/mol | –
288.18 K, x1 = 0.003086 | -0.0146 kcal/mol | –
288.18 K, x1 = 0.003089 | -0.0146 kcal/mol | –
288.18 K, x1 = 0.004111 | -0.0193 kcal/mol | –
288.18 K, x1 = 0.004113 | -0.0194 kcal/mol | –
288.18 K, x1 = 0.005132 | -0.0241 kcal/mol | –
288.18 K, x1 = 0.005135 | -0.0241 kcal/mol | –
288.18 K, x1 = 0.006153 | -0.029 kcal/mol | –
288.18 K, x1 = 0.006157 | -0.0288 kcal/mol | –
293.15 K, x1 = 0.001031 | -0.00462 kcal/mol | 999.136 kg/m3
293.15 K, x1 = 0.00206 | -0.00926 kcal/mol | 1000.07 kg/m3
293.15 K, x1 = 0.003088 | -0.0138 kcal/mol | 1001 kg/m3
293.15 K, x1 = 0.004114 | -0.0182 kcal/mol | 1001.9 kg/m3
293.15 K, x1 = 0.005136 | -0.0227 kcal/mol | 1002.82 kg/m3
293.15 K, x1 = 0.006158 | -0.0272 kcal/mol | 1003.73 kg/m3
298.15 K, x1 = 0.001032 | -0.00443 kcal/mol and -0.00441 kcal/mol | 997.937 kg/m3 and 997.929 kg/m3
298.15 K, x1 = 0.002061 | -0.00881 kcal/mol | 998.816 kg/m3
298.15 K, x1 = 0.002062 | -0.00882 kcal/mol | 998.823 kg/m3
298.15 K, x1 = 0.003089 | -0.0132 kcal/mol | 999.697 kg/m3 and 999.692 kg/m3
298.15 K, x1 = 0.004113 | -0.0175 kcal/mol | 1000.57 kg/m3
298.15 K, x1 = 0.004114 | -0.0174 kcal/mol | 1000.56 kg/m3
298.15 K, x1 = 0.005137 | -0.0218 kcal/mol | 1001.45 kg/m3 and 1001.43 kg/m3
298.15 K, x1 = 0.00616 | -0.0261 kcal/mol | 1002.32 kg/m3 and 1002.3 kg/m3
303.15 K, x1 = 0.001032 | -0.00411 kcal/mol | 996.49 kg/m3
303.15 K, x1 = 0.002061 | -0.00821 kcal/mol | 997.341 kg/m3
303.15 K, x1 = 0.003089 | -0.0123 kcal/mol | 998.182 kg/m3
303.15 K, x1 = 0.004114 | -0.0163 kcal/mol | 999.012 kg/m3
303.15 K, x1 = 0.005137 | -0.0203 kcal/mol | 999.84 kg/m3
303.15 K, x1 = 0.006159 | -0.0243 kcal/mol | 1000.66 kg/m3
308.15 K, x1 = 0.001031 | -0.00386 kcal/mol and -0.00387 kcal/mol | 994.828 kg/m3 and 994.831 kg/m3
308.15 K, x1 = 0.00206 | -0.00777 kcal/mol and -0.00778 kcal/mol | 995.637 kg/m3
308.15 K, x1 = 0.003086 | -0.0116 kcal/mol | 996.432 kg/m3
308.15 K, x1 = 0.003088 | -0.0117 kcal/mol | 996.443 kg/m3
308.15 K, x1 = 0.004109 | -0.0155 kcal/mol | 997.222 kg/m3
308.15 K, x1 = 0.004114 | -0.0155 kcal/mol | 997.237 kg/m3
308.15 K, x1 = 0.005131 | -0.0194 kcal/mol | 998.031 kg/m3
308.15 K, x1 = 0.005137 | -0.0194 kcal/mol | 998.026 kg/m3
308.15 K, x1 = 0.006152 | -0.0232 kcal/mol | 998.821 kg/m3
308.15 K, x1 = 0.00616 | -0.0232 kcal/mol | 998.816 kg/m3
313.15 K, x1 = 0.001032 | -0.00352 kcal/mol | 992.976 kg/m3
313.15 K, x1 = 0.002062 | -0.0071 kcal/mol | 993.745 kg/m3
313.15 K, x1 = 0.003091 | -0.0107 kcal/mol | 994.499 kg/m3
313.15 K, x1 = 0.004116 | -0.0142 kcal/mol | 995.251 kg/m3
313.15 K, x1 = 0.005139 | -0.0178 kcal/mol | 996.015 kg/m3
313.15 K, x1 = 0.006161 | -0.0213 kcal/mol | 996.763 kg/m3
318.15 K, x1 = 0.001031 | -0.00324 kcal/mol | 990.924 kg/m3
318.15 K, x1 = 0.001032 | -0.00325 kcal/mol | 990.928 kg/m3
318.15 K, x1 = 0.00206 | -0.00659 kcal/mol | 991.645 kg/m3
318.15 K, x1 = 0.002062 | -0.00661 kcal/mol | 991.65 kg/m3
318.15 K, x1 = 0.003088 | -0.01 kcal/mol | 992.362 kg/m3
318.15 K, x1 = 0.00309 | -0.00996 kcal/mol | 992.361 kg/m3
318.15 K, x1 = 0.004114 | -0.0133 kcal/mol | 993.082 kg/m3
318.15 K, x1 = 0.004116 | -0.0133 kcal/mol | 993.069 kg/m3
318.15 K, x1 = 0.005137 | -0.0167 kcal/mol | 993.801 kg/m3
318.15 K, x1 = 0.00514 | -0.0168 kcal/mol | 993.799 kg/m3
318.15 K, x1 = 0.006159 | -0.0201 kcal/mol | 994.517 kg/m3
318.15 K, x1 = 0.006164 | -0.0202 kcal/mol | 994.503 kg/m3
